# Test results from patent US10570129B2 (Zoetis Services LLC, priority 2015, dated 2020).
# Columns and labels:
# Haemonchus contortus L3 = experiment: microbe, parasite or virus in culture; format: cell-based; conditions: Haemonchus contortus, 96 h, read-out: HcL3 Minimal Effective Concentration (MEC)
# D. immitis microfilariae = experiment: Dirofilaria immitis, microfilariae (DiMF) in vitro motility assay; format: cell-based; conditions: Dirofilaria immitis, 72 h, read-out: DiMF minimally effective dose (MEC)
SMILES,minimal effective concentration (Haemonchus contortus L3) [µM],minimal effective concentration (D. immitis microfilariae) [µM]
O=C(NCc1ccnc(Cl)c1)n1c2c(c3cc(N4CCSCC4)ccc31)CN(C/C=C/c1ccc(Cl)c(F)c1)CC2 [Example 510],> 100,> 100
"N#Cc1ccc2c(c1)c1c(n2C(=O)NCc2ccnc(F)c2)CCN(C/C=C/c2cc(F)c(F)c(F)c2)C1 [Example 116, (E)-8-cyano-N-((2-fluoropyridin-4-yl)methyl)-2-(3-(3,4,5-trifluorophenyl)allyl)-1,2,3,4-tetrahydro-5H-pyrido[4,3-b]indole-5-carboxamide]",0.1,1.3
"O=C(NCc1ccnc(Cl)c1)n1c2c(c3ccc(OC(F)(F)F)cc31)CN(C/C=C/c1ccc(Cl)cc1F)CC2 [Example 340, (E)-2-(3-(4-chloro-2-fluorophenyl)allyl)-N-((2-chloropyridin-4-yl)methyl)-7-(trifluoromethoxy)-1,2,3,4-tetrahydro-5H-pyrido[4,3-b]indole-5-carboxamide]",0.3,5.7
"O=C(NCc1ccnc(F)c1)n1c2c(c3cc(F)c(Cl)cc31)CN(C/C=C/c1ccc(Cl)c(F)c1)CC2 [Example 309, (E)-7-chloro-2-(3-(4-chloro-3-fluorophenyl)allyl)-8-fluoro-N-((2-fluoropyridin-4-yl)methyl)-1,2,3,4-tetrahydro-5H-pyrido[4,3-b]indole-5-carboxamide]",0.3,1.8
"O=C(NCc1ccnc(F)c1)n1c2c(c3cc(Br)ccc31)CN(C/C=C/c1ccc(F)c(Cl)c1)CC2 [Example 190, (E)-8-bromo-2-(3-(3-chloro-4-fluorophenyl)allyl)-N-((2-fluoropyridin-4-yl)methyl)-1,2,3,4-tetrahydro-5H-pyrido[4,3-b]indole-5-carboxamide]",1,5.7
"N#Cc1ccc2c(c1)c1c(n2C(=O)NCc2ccnc(Cl)c2)CCN(C/C=C/c2ccc(F)c(F)c2F)C1 [Example 80, (E)-N-((2-chloropyridin-4-yl)methyl)-8-cyano-2-(3-(2,3,4-trifluorophenyl)allyl)-1,2,3,4-tetrahydro-5H-pyrido[4,3-b]indole-5-carboxamide]",0.06,> 100
"O=C(NCc1ccnc(Cl)c1)n1c2c(c3cc(-n4ccccc4=O)ccc31)CN(C/C=C/c1ccc(Cl)cc1)CC2 [Example 500, (E)-2-(3-(4-chlorophenyl)allyl)-N-((2-chloropyridin-4-yl)methyl)-8-(2-oxopyridin-1 (2H)-yl)-1,2,3,4-tetrahydro-5H-pyrido[4,3-b]indole-5-carboxamide]",> 100,5.7
"O=C(NCc1ccnc(Cl)c1)n1c2c(c3cc(C(F)(F)F)ccc31)CN(C/C=C/c1ccc(F)cc1)CC2 [Example 334, (E)-N-((2-chloropyridin-4-yl)methyl)-2-(3-(4-fluorophenyl)allyl)-8-(trifluoromethyl)-1,2,3,4-tetrahydro-5H-pyrido[4,3-b]indole-5-carboxamide]",1,10
"N#Cc1ccc2c(c1)c1c(n2C(=O)NCc2ccnc(O)c2)CCN(C/C=C/c2ccc(Br)cc2F)C1 [Example 451, (E)-2-(3-(4-bromo-2-fluorophenyl)allyl)-8-cyano-N-((2-hydroxypyridin-4-yl)methyl)-1,2,3,4-tetrahydro-5H-pyrido[4,3-b]indole-5-carboxamide]",> 100,3.3
"O=C(NCc1ccnc(Cl)c1)n1c2c(c3c(OC(F)(F)F)cccc31)CN(C/C=C/c1ccc(C(F)(F)F)cn1)CC2 [Example 343, (E)-N-((2-chloropyridin-4-yl)methyl)-9-(trifluoromethoxy)-2-(3-(5-(trifluoromethyl)pyridin-2-yl)allyl)-1,2,3,4-tetrahydro-5H-pyrido[4,3-b]indole-5-carboxamide]",33,3.3
"O=C(NCc1ccnc(F)c1)n1c2c(c3cc(Cl)ccc31)CN(C/C=C/c1ccc(F)cc1F)CC2 [Example 257, (E)-8-chloro-2-(3-(2,4-difluorophenyl)allyl)-N-((2-fluoropyridin-4-yl)methyl)-1,2,3,4-tetrahydro-5H-pyrido[4,3-b]indole-5-carboxamide]",0.2,5.7
"N#Cc1ccc2c(c1)c1c(n2C(=O)NCc2ccnc(F)c2)CCN(C/C=C/c2c(F)cc(F)cc2F)C1 [Example 106, (E)-8-cyano-N-((2-fluoropyridin-4-yl)methyl)-2-(3-(2,4,6-trifluorophenyl)allyl)-1,2,3,4-tetrahydro-5H-pyrido[4,3-b]indole-5-carboxamide]",0.3,> 100
"Cc1ccc2c(c1)c1c(n2C(=O)NCc2ccnc(Cl)c2)CCN(C/C=C/c2ccc(F)cc2)C1 [Example 433, (E)-N-((2-chloropyridin-4-yl)methyl)-2-(3-(4-fluorophenyl)allyl)-8-methyl-1,2,3,4-tetrahydro-5H-pyrido[4,3-b]indole-5-carboxamide]",0.5,5.7
"N#Cc1ccc2c(c1)c1c(n2C(=O)NCc2ccnc(Cl)c2)CCN(C/C=C/c2ccc(Cl)c(F)c2F)C1 [Example 82, (E)-2-(3-(4-chloro-2,3-difluorophenyl)allyl)-N-((2-chloropyridin-4-yl)methyl)-8-cyano-1,2,3,4-tetrahydro-5H-pyrido[4,3-b]indole-5-carboxamide]",0.2,> 100
"O=C(NCc1ccnc(F)c1)n1c2c(c3cc(OC(F)(F)F)ccc31)CN(C/C=C/c1ccc(F)cc1F)CC2 [Example 403, (E)-2-(3-(2,4-difluorophenyl)allyl)-N-((2-fluoropyridin-4-yl)methyl)-8-(trifluoromethoxy)-1,2,3,4-tetrahydro-5H-pyrido[4,3-b]indole-5-carboxamide]",0.3,18.2
"O=C(NCc1ccnc(Cl)c1)n1c2c(c3cc(C(F)(F)F)ccc31)CN(C/C=C/c1ccc(OC(F)(F)F)cc1)CC2 [Example 335, (E)-N-((2-chloropyridin-4-yl)methyl)-2-(3-(4-(trifluoromethoxy)phenyl)allyl)-8-(trifluoromethyl)-1,2,3,4-tetrahydro-5H-pyrido[4,3-b]indole-5-carboxamide]",10,24
"O=C(NCc1ccnc(F)c1)n1c2c(c3ccc(Cl)cc31)CN(C/C=C/c1ccc(Cl)c(F)c1)CC2 [Example 224, (E)-7-chloro-2-(3-(4-chloro-3-fluorophenyl)allyl)-N-((2-fluoropyridin-4-yl)methyl)-1,2,3,4-tetrahydro-5H-pyrido[4,3-b]indole-5-carboxamide]",1.8,3.3
"COc1ccc(/C=C/CN2CCc3c(c4c(Cl)cccc4n3C(=O)NCc3ccnc(Cl)c3)C2)cc1 [Example 220, (E)-9-chloro-N-((2-chloropyridin-4-yl)methyl)-2-(3-(4-methoxyphenyl)allyl)-1,2,3,4-tetrahydro-5H-pyrido[4,3-b]indole-5-carboxamide]",3.3,10
"O=C(NCc1ccnc(F)c1)n1c2c(c3cc(OC(F)(F)F)ccc31)CN(C/C=C/c1ccc(Cl)cc1)CC2 [Example 408, (E)-2-(3-(4-chlorophenyl)allyl)-N-((2-fluoropyridin-4-yl)methyl)-8-(trifluoromethoxy)-1,2,3,4-tetrahydro-5H-pyrido[4,3-b]indole-5-carboxamide]",1,10
"N#Cc1ccc(/C=C/CN2CCc3c(c4ccc(Cl)cc4n3C(=O)NCc3ccnc(Cl)c3)C2)cc1F [Example 208, (E)-7-chloro-N-((2-chloropyridin-4-yl)methyl)-2-(3-(4-cyano-3-fluorophenyl)allyl)-1,2,3,4-tetrahydro-5H-pyrido[4,3-b]indole-5-carboxamide]",1.8,> 100
"Cc1ccc2c(c1)c1c(n2C(=O)NCc2ccnc(Cl)c2)CCN(C/C=C/c2ccc(Cl)c(Cl)c2)C1 [Example 432, (E)-N-((2-chloropyridin-4-yl)methyl)-2-(3-(3,4-dichlorophenyl)allyl)-8-methyl-1,2,3,4-tetrahydro-5H-pyrido[4,3-b]indole-5-carboxamide]",1,57.4
"O=C(NCc1ccc(F)cc1)n1c2c(c3cc(F)ccc31)CN(C/C=C/c1ccc(Cl)cc1)CC2 [Example 170, (E)-2-(3-(4-chlorophenyl)allyl)-8-fluoro-N-(4-fluorobenzyl)-1,2,3,4-tetrahydro-5H-pyrido[4,3-b]indole-5-carboxamide]",> 100,1
"N#Cc1ccc2c3c(n(C(=O)NCc4ccnc(Cl)c4)c2c1)CCN(C/C=C/c1ccncc1)C3 [Example 37, (E)-N-((2-chloropyridin-4-yl)methyl)-7-cyano-2-(3-(pyridin-4-yl)allyl)-1,2,3,4-tetrahydro-5H-pyrido[4,3-b]indole-5-carboxamide]",> 100,33
"O=C(NCc1ccnc(Cl)c1)n1c2c(c3c(F)cc(C(F)(F)F)cc31)CN(C/C=C/c1ccc(Cl)cc1)CC2 [Example 323, (E)-2-(3-(4-chlorophenyl)allyl)-N-((2-chloropyridin-4-yl)methyl)-9-fluoro-7-(trifluoromethyl)-1,2,3,4-tetrahydro-5H-pyrido[4,3-b]indole-5-carboxamide]",> 100,7.6
"O=C(NCc1ccnc(Cl)c1)n1c2c(c3ccc(Br)cc31)CN(C/C=C/c1ccc(F)cc1F)CC2 [Example 199, (E)-7-bromo-N-((2-chloropyridin-4-yl)methyl)-2-(3-(2,4-difluorophenyl)allyl)-1,2,3,4-tetrahydro-5H-pyrido[4,3-b]indole-5-carboxamide]",5.7,24.5
